Converted amounts (≈) assume the structure as drawn. Residues, ends and D or L forms follow the SMILES beside them.
What was measured:
CHO-WBL cells = experiment: Chromosomal aberration assay (genotoxicity); assay type: cell-based, Chinese hamster; details: for % Gaps / % Structural aberration without gaps / Cells with endoreduplication (%) / Cells with polyploidy (%) / Cytotoxicity (%) / % Structural aberrant cells: harvest 22 h; for Cytotoxicity (%): cell growth inhibition relative to negative control; for % Structural aberrant cells: cells with only gaps not included
Description: All cells were cultured for 22 h after initiation of INS treatment.

[1] = Solubility of IN-derived peptides in human plasma; assay type: physicochemical; details: LC-MS
Description: (§1) Analytic HPLC-MS was performed using an Agilent 1260 series Liquid Chromatography/Mass Selective Detector (MSD) equipped with an electrospray interface and a UV diode array detector. Analyses were performed on an ACE C8, 50 × 3.0 mm, 3 µm column, with an isocratic 0.1% formic acid/ACN eluent, at a rate of 1 ml/min over a period of 5 min. UV absorption was measured at 280 nm, 220 nm, and 215–395 nm. MS analysis was performed with ESI (electron spray ionization) with a positive ionization method.
(§2) Four reaction systems were prepared; INS and INR2 in human plasma, INS and INR2 in rat plasma (Supplementary Table 2). Freshly prepared 10 mg/ml stock solution of the peptides was injected into plasma or PBS solution (1:1). The mixture was diluted with methanol to precipitate the plasma proteins. The samples were filtered through PTFE 0.45 µm filters and run in LC-MS. Samples were taken at the following times: 0, 15, 30, 60, 120, 240, and 480 min and after 24 h.
Plasma solubility was determined at 0 min and was verified at 60 min (if no degradation was observed).

[2] = Stability test in human plasma; assay type: in vitro ADME; details: for Analyte Remaining % / Concentration calculated from LC-MS data: human plasma, 10 mg/ml stock into plasma 1:1, LC-MS; for Concentration calculated from LC-MS data: methanol precipitation, 0.45 µm filtration; for Stability: rat and human plasma
Description: as §1, §2

[3] = system: Lymphocytes of healthy volunteers; experiment: Cytotoxicity of peptides, WST-1; assay type: cell-based, human; details: peptide alone
Description: Written informed consent was obtained from all eligible participants prior to entry into the study. Approval for this study was provided by Kaplan Medical Center’s Ethics Committee (Protocol No. ZMS1/2016). Lymphocytes of healthy volunteers were isolated from the peripheral blood by Ficoll-Paque density gradient centrifugation. Cells were incubated in DMEM with different peptide concentrations for 72 h. Then, 100 µl of cells were taken for toxicity testing using a quantitative cell viability test, the WST-1 assay.

HeLa cells = system: HeLa cells; parameters: method as in PMID 20517955; details: cited from earlier work
H1975 lung cancer cells = experiment: Cytotoxicity of peptides without lentiviral particles, MTT; assay type: cell-based, human; details: peptide alone, three times over ten days
Description: H1975 lung cancer cells were treated three times over the course of 10 days (on days 2, 4, and 7) with different concentrations of the tested peptides. Following ten days of incubation, cells were analyzed for potential toxicity using a quantitative cell viability test, the MTT assay.

SD rats = experiment: Immunogenicity, anti-peptide antibody ELISA; assay type: in vivo, rat; details: biweekly administrations over 10 weeks, serum 1:50
Description: Animals were fed ad libitum a commercial rodent diet (Teklad Certified Global 18% Protein Diet). Animals had free access to sterilized and acidified drinking water (pH between 2.5 and 3.5). SD rats were randomly allocated to cages and treated twice a week, for ten weeks with INS peptide, at two doses of 1.5 and 7.5 mg/kg. Rat blood was collected before immunization (exposure to the peptide) to serve as a baseline, and after immunization at day 21, 35, 49, and 70/72. The immunogenicity was analyzed by evaluation of anti-peptide antibodies in the sera of SD rats, using a specific developed ELISA test. A 96 well plate was coated overnight with INS labeled with biotin (5 µg/ml) (Thermo Scientific) followed by blocking (3% Milk in PBS) for 1 h at room temperature (RT). Serum samples were diluted at 1:50 and added to the plates for 1 h at RT. After washing with PBST (three times), a donkey anti-rat antibody (Jackson Laboratories, cat. no. 705-035-003) (diluted 1:5000) was added and incubated for 1 h at RT. Then, TMB, diluted 1:2 was added and the reaction was stopped after 10 min with HCL solution. Absorbance was measured by an automated microplate reader (iMARK microplate reader, BioRad) with a wavelength of 450 nm.

[4] = INS 10 µg/mL, +S9, 3 h treatment
[5] = INS 10 µg/mL, −S9, 3 h treatment
[6] = INS 10 µg/mL, −S9, 22 h treatment
[7] = INS 25 µg/mL, +S9, 3 h treatment
[8] = INS 25 µg/mL, −S9, 3 h treatment
[9] = INS 25 µg/mL, −S9, 22 h treatment
[10] = INS 50 µg/mL (precipitate), +S9, 3 h treatment
[11] = INS 50 µg/mL (precipitate), −S9, 3 h treatment
[12] = INS 50 µg/mL (precipitate), −S9, 22 h treatment

## CC[C@H](C)[C@H](NC(=O)[C@H](Cc1ccccc1)NC(=O)[C@@H](NC(=O)[C@H](C)NC(=O)[C@H](CCSC)NC(=O)[C@H](CCC(N)=O)NC(=O)[C@@H](NC(=O)[C@H](C)NC(=O)[C@@H](NC(=O)[C@@H](N)Cc1c[nH]c2ccccc12)[C@@H](C)O)C(C)C)C(C)C)C(=O)N[C@@H](Cc1c[nH]cn1)C(=O)N[C@@H](CC(N)=O)C(=O)N[C@@H](Cc1ccccc1)C(=O)N[C@@H](CCCCN)C(=O)N[C@@H](CCCNC(=N)N)C(=O)N[C@@H](CCCCN)C(=O)O [INS] (H-WTAVQMAVFIHNFKRK-OH)
CHO-WBL cells; 10-50 µg/mL, ±S9, 3 and 22 h
  Induction of structural chromosomal aberrations (conclusion): negative
CHO-WBL cells; [4]
  % Gaps: 0.3%
  % Structural aberration without gaps: 1.0%
  Cells with endoreduplication (%): 0.0%
  Cells with polyploidy (%): 0.0%
  Cytotoxicity (%): 5%
  % Structural aberrant cells: 1.0%
CHO-WBL cells; [5]
  % Gaps: 0.7%
  % Structural aberration without gaps: 1.3%
  Cells with endoreduplication (%): 0.0%
  Cells with polyploidy (%): 0.0%
  Cytotoxicity (%): 4%
  % Structural aberrant cells: 1.3%
CHO-WBL cells; [6]
  % Gaps: 0.7%
  % Structural aberration without gaps: 1.0%
  Cells with endoreduplication (%): 0.0%
  Cells with polyploidy (%): 0.0%
  Cytotoxicity (%): −1%
  % Structural aberrant cells: 1.0%
CHO-WBL cells; [7]
  % Gaps: 0.3%
  % Structural aberration without gaps: 1.0%
  Cells with endoreduplication (%): 0.3%
  Cells with polyploidy (%): 0.0%
  Cytotoxicity (%): −1%
  % Structural aberrant cells: 1.0%
CHO-WBL cells; [8]
  % Gaps: 0.3%
  % Structural aberration without gaps: 1.0%
  Cells with endoreduplication (%): 0.3%
  Cells with polyploidy (%): 0.0%
  Cytotoxicity (%): −10%
  % Structural aberrant cells: 1.0%
CHO-WBL cells; [9]
  % Gaps: 0.0%
  % Structural aberration without gaps: 1.0%
  Cells with endoreduplication (%): 0.0%
  Cells with polyploidy (%): 0.0%
  Cytotoxicity (%): −3%
  % Structural aberrant cells: 1.0%
CHO-WBL cells; [10]
  % Gaps: 0.3%
  % Structural aberration without gaps: 1.7%
  Cells with endoreduplication (%): 7.3%
  Cells with polyploidy (%): 0.0%
  Cytotoxicity (%): 46%
  % Structural aberrant cells: 1.7%
CHO-WBL cells; [11]
  % Gaps: 0.7%
  % Structural aberration without gaps: 1.3%
  Cells with endoreduplication (%): 0.0%
  Cells with polyploidy (%): 0.0%
  Cytotoxicity (%): −7%
  % Structural aberrant cells: 1.3%
CHO-WBL cells; [12]
  % Gaps: 0.3%
  % Structural aberration without gaps: 1.3%
  Cells with endoreduplication (%): 0.0%
  Cells with polyploidy (%): 0.0%
  Cytotoxicity (%): −1%
  % Structural aberrant cells: 1.3%
[1]; % of 5 mg/mL sample
  Solubility: 62%
[1]; from 5 mg/mL sample (10 mg/ml stock into plasma 1:1), at 0 min, verified at 60 min, methanol precipitation, PTFE 0.45 µm filtration
  Solubility: 3.1 mg/mL (≈ 1570 µM)
[2]; 0 h
  Analyte Remaining %: 65.7%
  Concentration calculated from LC-MS data: 3290 µg/mL
[2]; 0.25 h
  Analyte Remaining %: 60.9%
  Concentration calculated from LC-MS data: 3040 µg/mL
[2]; 0.5 h
  Analyte Remaining %: 71.1%
  Concentration calculated from LC-MS data: 3590 µg/mL
[2]; 1 h
  Analyte Remaining %: 58.4%
  Concentration calculated from LC-MS data: 2920 µg/mL
[2]; 2 h
  Analyte Remaining %: 62.7%
  Concentration calculated from LC-MS data: 3130 µg/mL
[2]; 4 h
  Analyte Remaining %: 62.2%
  Concentration calculated from LC-MS data: 3110 µg/mL
[2]; 8 h
  Analyte Remaining %: 44.2%
  Concentration calculated from LC-MS data: 2210 µg/mL
[2]; 24 h
  Analyte Remaining %: 23.8%
  Concentration calculated from LC-MS data: 1190 µg/mL
[2]; after 8 h
  Stability: 40%
[2]; after 24 h
  Stability: ~ 25%
[3]
  Viability of primary lymphocytes: not affected
HeLa cells
  Cell permeability: cell-permeable
  Toxicity: non-toxic
H1975 lung cancer cells
  Effect on lung cancer cell viability: no effect
SD rats; dose level 1.5 (mg/kg)
  Immunogenicity (anti-peptide antibodies, ELISA; words): no
SD rats; dose level 7.5 (mg/kg)
  Immunogenicity (anti-peptide antibodies, ELISA; words): very low

Source: PMC8175240, “Integrase-derived peptides together with CD24-targeted lentiviral particles inhibit the growth of CD24 expressing cancer cells” (Oncogene, 2021)
